PMC6700428, “Purification and characterization of an isoflavones conjugate hydrolyzing β-glucosidase (ICHG) from Cyamopsis tetragonoloba (guar)” (Biochemistry and Biophysics Reports, 2019)

What was measured:
[1] = test system: T1, Isoflavones conjugate hydrolyzing β-glucosidase (ICHG); experiment: 4-nitrophenol release at […] nm, Lineweaver-Burk plot; format: biochemical, Cyamopsis tetragonoloba; settings: optimum pH 4.5 and 37 °C; citrate phosphate buffer 0.1 M; PNPG 0.1-5 mM
T1 construct: native, purified from dried seeds (ammonium sulphate, Sephadex G-75, DEAE-Sepharose); ~50 kDa subunit, ~150 kDa native, probable homotrimer; five internal peptides closest to Cicer arietinum beta-glucosidase

[2] = biological target: Isoflavones conjugate hydrolyzing β-glucosidase (ICHG) from Cyamopsis tetragonoloba (guar) (Cyamopsis tetragonoloba (guar)); experiment: SEC; Sephadex G-75 column (1.8 x 50 cm), 0.02 M sodium phosphate buffer pH 6, standard proteins of 66 to 124 kDa; native mass (~150 kDa) compared with the subunit mass on SDS-PAGE (~50 kDa)

Compound | Km [1] [µM] | stoichiometry N [2]
O=[N+]([O-])c1ccc(O[C@@H]2O[C@H](CO)[C@@H](O)[C@H](O)[C@H]2O)cc1 [para nitrophenyl -β-D- glucopyranoside] | 860 | –
Isoflavones conjugate hydrolyzing β-glucosidase (ICHG) from Cyamopsis tetragonoloba (guar) (enzyme) | – | 3
